# Data taken from ChEMBL document CHEMBL4715916, “Synthesis and biological evaluation of a ring analogs of the selective CB2 inverse agonist SMM-189” (Bioorg Med Chem, 2021).
# Active and inactive are the calls of the source. The calls are words filed in the database; no cut-off is given here.
# Legend:
# [1] = biological target: T1, Cannabinoid receptor 1 (Homo sapiens, UniProt P21554); experiment: Inverse agonist activity at human recombinant cannabinoid CB1 receptor expressed in HEK cells transfected with CNG assessed as increase in cAMP level measured up to 1 hr by ACTOne membrane potential dye based assay; format: functional, cell-based; settings: time hrs <=1
# T1 sequence (P21554 whole entry): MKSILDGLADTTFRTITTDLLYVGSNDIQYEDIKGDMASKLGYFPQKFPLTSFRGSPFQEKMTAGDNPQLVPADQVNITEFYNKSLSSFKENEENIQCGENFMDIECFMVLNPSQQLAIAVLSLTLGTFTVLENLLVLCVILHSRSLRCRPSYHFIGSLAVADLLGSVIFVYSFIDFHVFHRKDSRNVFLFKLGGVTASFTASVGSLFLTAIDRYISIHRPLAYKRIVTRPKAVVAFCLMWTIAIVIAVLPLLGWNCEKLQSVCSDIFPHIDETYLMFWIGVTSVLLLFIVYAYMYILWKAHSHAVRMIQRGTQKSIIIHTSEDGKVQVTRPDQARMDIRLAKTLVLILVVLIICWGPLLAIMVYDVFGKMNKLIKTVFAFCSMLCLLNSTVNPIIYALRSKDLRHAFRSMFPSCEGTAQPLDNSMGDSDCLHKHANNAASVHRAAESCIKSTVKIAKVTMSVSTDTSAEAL
# [2] = biological target: T2, Cannabinoid receptor 2 (Homo sapiens, UniProt P34972); experiment: Inverse agonist activity at human recombinant cannabinoid CB2 receptor expressed in HEK cells transfected with CNG assessed as increase in cAMP level measured up to 1 hr by ACTOne membrane potential dye based assay relative to control; format: functional, cell-based; settings: time hrs <=1
# T2 sequence (P34972 whole entry): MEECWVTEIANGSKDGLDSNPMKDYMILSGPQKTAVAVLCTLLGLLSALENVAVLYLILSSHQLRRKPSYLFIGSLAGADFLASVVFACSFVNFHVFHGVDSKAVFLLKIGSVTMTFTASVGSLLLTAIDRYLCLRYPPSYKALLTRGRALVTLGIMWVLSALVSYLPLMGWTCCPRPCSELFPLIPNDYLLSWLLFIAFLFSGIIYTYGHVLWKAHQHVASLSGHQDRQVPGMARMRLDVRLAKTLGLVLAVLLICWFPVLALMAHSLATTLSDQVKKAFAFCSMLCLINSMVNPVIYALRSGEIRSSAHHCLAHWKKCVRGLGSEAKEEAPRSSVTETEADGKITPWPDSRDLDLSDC
# [3] = biological target: T1, Cannabinoid receptor 1; experiment: Displacement of [3H]-CP55940 from human recombinant cannabinoid CB1 receptor expressed in HEK cell membranes incubated for 1.5 hrs by liquid scintillation counting method; design: species or system Cell membrane
# [4] = biological target: T1, Cannabinoid receptor 1; experiment: Inverse agonist activity at human recombinant cannabinoid CB1 receptor expressed in HEK cells transfected with CNG assessed as increase in cAMP level measured up to 1 hr by ACTOne membrane potential dye based assay relative to control; format: functional, cell-based; settings: time hrs <=1
# [5] = biological target: T2, Cannabinoid receptor 2; experiment: Displacement of [3H]-CP55940 from human recombinant cannabinoid CB2 receptor expressed in HEK cell membranes incubated for 1.5 hrs by liquid scintillation counting method; design: species or system Cell membrane
# [6] = biological target: T2, Cannabinoid receptor 2; experiment: Inverse agonist activity at human recombinant cannabinoid CB2 receptor expressed in HEK cells transfected with CNG assessed as increase in cAMP level measured up to 1 hr by ACTOne membrane potential dye based assay; format: functional, cell-based
# [7] = species on record: Homo sapiens; experiment: Selectivity ratio of Ki for displacement of [3H]-CP55940 from human recombinant cannabinoid CB1 receptor expressed in HEK cell membranes to displacement of [3H]-CP55940 from human recombinant cannabinoid CB2 receptor expressed in HEK cell membranes
# [8] = tested on: IMhu; experiment: Cytoprotective activity in human IMhu cells assessed as reduction in LPS-induced ROS generation at 10 uM after 50 to 1440 mins by fluorescence based assay; format: functional, cell-based; settings: time 50-1440 min
# [9] = biological target: T1, Cannabinoid receptor 1; experiment: Inverse agonist activity at cannabinoid CB1 receptor in human U2OS cells assessed as emission ratio using CCF4/AM as substrate preincubated for 5 hrs followed by substrate addition and measured after 2 hrs by Tango assay; format: cell-based; settings: time 7.0 hrs
# [10] = tested on: C8-B4; experiment: Effect on LPS-stimulated microglia polarization in mouse C8-B4 cells assessed as increase in CD204 expression at 20 uM after 24 hrs by cell polarization assay; format: functional, cell-based
# [11] = tested on: IMhu; experiment: Effect on LPS-stimulated microglia polarization in human IMhu cells assessed as increase in CD206 expression at 35 uM after 24 hrs by cell polarization assay; format: functional, cell-based
# [12] = tested on: IMhu; experiment: Induction of morphological changes in LPS-induced human IMhu cells assessed as elongated projection formation at 10 uM after 24 hrs by DAPI/Phalloidin staining based fluorescence microscopic analysis; format: functional
# [13] = tested on: C8-B4; experiment: Effect on LPS-stimulated microglia polarization in mouse C8-B4 cells assessed as increase in CD206 expression at 20 uM after 24 hrs by cell polarization assay; format: functional, cell-based
# [14] = tested on: IMhu; experiment: Effect on LPS-stimulated microglia polarization in human IMhu cells assessed as decrease in CD68 expression at 35 uM after 24 hrs by cell polarization assay; format: functional, cell-based
# [15] = tested on: IMhu; experiment: Induction of morphological changes in LPS-induced human IMhu cells assessed as small cell body at 10 uM after 24 hrs by DAPI/Phalloidin staining based fluorescence microscopic analysis; format: functional
# [16] = tested on: IMhu; experiment: Induction of morphological changes in LPS-induced human IMhu cells assessed as ramified cell at 10 uM after 24 hrs by DAPI/Phalloidin staining based fluorescence microscopic analysis; format: functional
# [17] = tested on: C8-B4; experiment: Effect on LPS-stimulated microglia polarization in mouse C8-B4 cells assessed as decrease in CD68 expression at 20 uM after 24 hrs by cell polarization assay; format: functional, cell-based
# [18] = biological target: T1, Cannabinoid receptor 1; experiment: Inverse agonist activity at cannabinoid CB1 receptor in human U2OS cells assessed as induction of beta-arrestin recruitment using CCF4/AM as substrate preincubated for 5 hrs followed by substrate addition and measured after 2 hrs by Tango assay; format: cell-based; settings: time 7.0 hrs
# [19] = biological target: T2, Cannabinoid receptor 2; experiment: Inverse agonist activity at cannabinoid CB2 receptor in human U2OS cells assessed as emission ratio using CCF4/AM as substrate preincubated for 5 hrs followed by substrate addition and measured after 2 hrs by Tango assay; format: cell-based; settings: time 7.0 hrs
# [20] = tested on: IMhu; experiment: Effect on LPS-stimulated microglia polarization in human IMhu cells assessed as decrease in CD16 expression at 35 uM after 24 hrs by cell polarization assay; format: functional, cell-based
# [21] = tested on: C8-B4; experiment: Effect on LPS-stimulated microglia polarization in mouse C8-B4 cells assessed as decrease in CD16/32 expression at 20 uM after 24 hrs by cell polarization assay; format: functional, cell-based
# [22] = tested on: IMhu; experiment: Inhibition of cell migration in LPS-induced human IMhu cells at 10 uM after 24 hrs by scratch assay; format: functional
# [23] = biological target: T2, Cannabinoid receptor 2; experiment: Inverse agonist activity at cannabinoid CB2 receptor in human U2OS cells assessed as induction of beta-arrestin recruitment using CCF4/AM as substrate preincubated for 5 hrs followed by substrate addition and measured after 2 hrs by Tango assay; format: cell-based
# [24] = tested on: IMhu; experiment: Effect on LPS-stimulated microglia polarization in human IMhu cells assessed as increase in CD204 expression at 35 uM after 24 hrs by cell polarization assay; format: functional, cell-based
SMILES,pEC50 [1],Emax [2],Ki [3] [nM],Emax [4],Ki [5] [nM],Emax ([2]; filed as inverse agonist) [%],EC50 [6] [nM],Ratio Ki [7],pEC50 ([6]; time hrs <=1),Ratio [9],pEC50 [18],Ratio ([19]; filed as inverse agonist),EC50 [23] [nM],further results
O=C(c1ccccc1)c1cc(O)c(-c2ccc3c(c2)OCO3)c(O)c1,inactive,inactive,> 10000,inactive,> 10000,,,,,,,,,Emax ([6]; time hrs <=1): inactive
O=C(c1ccccc1)c1cc(O)c(-c2ccc3c(c2)OCCO3)c(O)c1,inactive,,> 10000,inactive,4740,49,4900,> 2.11,,,,,,
O=C(c1ccccc1)c1cc(O)c(-c2ccsc2)c(O)c1,inactive,inactive,> 10000,inactive,> 10000,,,,inactive,,,,,
O=C(c1cc(O)c(-c2cccc(CO)c2)c(O)c1)c1cccs1,inactive,inactive,> 10000,inactive,8380,,,> 1.19,inactive,,,,,
O=C(c1cc(O)c(-c2cccc(C(F)(F)F)c2)c(O)c1)c1cccs1,inactive,,> 10000,inactive,154,57.2,38.9,> 64.9,,inactive,inactive,1.19,8510,Activity [8]: Active; Activity [10]: Active; Activity [11]: Active; Activity [12]: Active; Activity [13]: Active; Activity [14]: Active; Activity [15]: Active; Activity [16]: Active; Activity [17]: Active; Activity [20]: Active; Activity [21]: Active; inhibition [22]: Active; Activity [24]: Active
O=C(c1ccccc1)c1cc(O)c(-c2cccc(CO)c2)c(O)c1,inactive,inactive,> 10000,inactive,2490,,,> 4,inactive,,,,,
O=C(c1ccccc1)c1cc(O)c(-c2ccncc2)c(O)c1,inactive,inactive,> 10000,inactive,> 10000,,,,inactive,,,,,
O=C(c1cc(O)c(-c2ccncc2)c(O)c1)c1cccs1,inactive,inactive,> 10000,inactive,> 10000,,,,inactive,,,,,
O=C(c1ccccc1)c1cc(O)c(-c2ccnc(F)c2)c(O)c1,inactive,inactive,> 10000,inactive,> 10000,,,,inactive,,,,,
O=C(c1cc(O)c(-c2cc(C(F)(F)F)cc(C(F)(F)F)c2)c(O)c1)c1cccs1,inactive,,3740,inactive,187,49.7,676,20,,inactive,inactive,0.94,1290,
O=C(c1ccccc1)c1cc(O)c(-c2cccc(C(F)(F)F)c2)c(O)c1,inactive,,> 10000,inactive,204,66,240,> 49,,inactive,inactive,1.41,3470,
O=C(c1ccccc1)c1cc(O)c(-c2cc(C(F)(F)F)cc(C(F)(F)F)c2)c(O)c1,inactive,22.9%,1900,inactive,215,,372,8.86,,inactive,inactive,0.91,1410,
O=C(c1ccccc1)c1cc(O)c(-c2cc(Cl)ccc2Cl)c(O)c1,inactive,,> 10000,inactive,233,66.5,363,> 42.9,,inactive,inactive,1.03,6030,
O=C(c1ccccc1)c1cc(O)c(-c2ccnc(Cl)c2)c(O)c1,inactive,inactive,> 10000,inactive,> 10000,,,,inactive,,,,,
Cc1ccc(Cn2nc(C(=O)N[C@@H]3C(C)(C)[C@@H]4CC[C@@]3(C)C4)cc2-c2ccc(Cl)c(C)c2)cc1,,,,,,,,,,,inactive,,,
Cc1cccc(-c2c(O)cc(C(=O)c3ccccc3)cc2O)c1,inactive,,4010,inactive,320,40.3,1660,12.6,,inactive,inactive,2.3,> 10000,
O=C(c1ccccc1)c1cc(O)c(-c2cc(F)cc(F)c2)c(O)c1,inactive,,1080,inactive,1630,63,1700,0.66,,inactive,inactive,2.22,8910,
O=C(c1ccccc1)c1cc(O)c(-c2ccoc2)c(O)c1,inactive,-18.5%,> 10000,inactive,1330,,2750,> 7.53,,,,,,
N#Cc1cc(-c2c(O)cc(C(=O)c3ccccc3)cc2O)ccc1F,inactive,,> 10000,inactive,1840,52.3,2820,> 5.44,,inactive,inactive,,,Ratio [19]: inactive; pEC50 ([23]; time 7.0 hrs): inactive
O=C(c1ccccc1)c1cc(O)c(-c2cc(Cl)cc(Cl)c2)c(O)c1,inactive,,,inactive,,54.8,,39.4,,inactive,inactive,0.66,,
O=C(c1cc(O)c(-c2cc(Cl)ccc2Cl)c(O)c1)c1cccs1,inactive,,> 10000,inactive,447,61,141,> 22.4,,inactive,inactive,1.46,> 10000,
Cc1cccc(-c2c(O)cc(C(=O)c3cccs3)cc2O)c1,inactive,,9530,inactive,975,51.7,200,9.77,,inactive,inactive,2.68,6170,
